Data published in article PMC10650955, “α-Aminophosphonate inhibitors of metallo-β-lactamases NDM-1 and VIM-2” (RSC Medicinal Chemistry, 2023).
Where a name gives a salt, the structure may show the parent alone.

How the values were obtained:
VIM-2 = biological target: T1, VIM-2 (Escherichia coli, UniProt Q5U7L7); assay: Dose rate inhibition studies for IC50 determination, VIM-2 enzymatic assay; assay type: biochemical; conditions: inhibitor 0-800 μM, 3 parallel measurements, N.I. = no enzyme inhibitory activity observed; for IC50: Enzyme IC50 VIM-2, 0.1 nM VIM-2, 100 μM ZnCl2, nitrocefin substrate; for Enzyme IC50 VIM-2: 0.1 nM VIM-2, 100 μM ZnCl2, nitrocefin substrate
T1 construct: made in house
Description: (§1) The […] synthesized compounds 5a–l were tested for their inhibitory activities against NDM-1, VIM-2 (Table 1), and GIM-1 in an in vitro enzymatic assay (ESI ^†).[41] The inhibitory activity was measured using enzyme concentrations of 0.1 nM VIM-2, 10 nM NDM-1 or 1 nM GIM-1, with an excess Zn(II) (100 μM, see Experimental methods), with inhibitor compounds with concentrations from 0 to 800 μM. Each data point was measured in triplicates. […] This is in line with previous reports.[42,43]
(§2) A 100 μl solution with buffer (50 mM HEPES (pH 7.2), 100 μM ZnCl2, 2.5% DMSO), purified enzyme (0.1 nM VIM-2, 10 nM NDM-1 or 1 nM GIM-1) and 800–0 μM inhibitor was incubated in a 96 well plate at 25 °C for 5 min. In addition, the enzyme buffer contained 400 μg ml^−1 bovine serum albumin (BSA) to prevent protein unfolding and loss of activity due to low concentrations.[67,68] 100 μM of the reporter substrate nitrocefin (VIM-2, GIM-1) or imipenem (NDM-1) was added to the enzyme–inhibitor solution and the increase in absorbance at 482 nm (nitrocefin) or 300 nm (imipenem) was recorded on a Spectramax M4 spectrophotometer (Molecular Devices). Each data point was performed in triplicates and the initial velocity for each inhibitor concentration was analyzed by a log [inhibitor] vs. response curve fitting to calculate IC50 in GraphPad Prism 9.2 software.

NDM-1 = biological target: T2, NDM-1 (Klebsiella pneumoniae, UniProt C7C422); assay: Dose rate inhibition studies for IC50 determination, NDM-1 enzymatic assay; assay type: biochemical; conditions: inhibitor 0-800 μM, 3 parallel measurements, N.I. = no enzyme inhibitory activity observed; for Enzyme IC50 NDM-1: 10 nM NDM-1, 100 μM ZnCl2, imipenem substrate; for IC50: Enzyme IC50 NDM-1, 10 nM NDM-1, 100 μM ZnCl2, imipenem substrate
T2 construct: made in house
Description: as §1, §2

15N-labelled VIM-2 = biological target: T3, 15N-labelled VIM-2 (Escherichia coli, UniProt Q5U7L7); assay: 1H,15N HSQC NMR chemical shift perturbation titration, VIM-2; assay type: binding; conditions: VIM-2 Kd, 0-16 equiv. ligand, pH 7.0, 310 K
T3 construct: made in house
Description: Solution NMR spectroscopy is a powerful tool to assess protein–ligand interactions under close to physiological conditions.[47] We, therefore, performed NMR chemical shift perturbation (CSP, for details, see section S8, ESI ^†) experiments to identify the amino acid residues of NDM-1 and VIM-2 that are involved in inhibitor binding, making use of the previously published protein assignments.[48,49] Titrations were conducted using ^15N-labelled proteins with 0, 0.5, 1, 2, 4, 8, and 16 equiv. of 5 inhibitors for NDM-1 and of 7 inhibitors for VIM-2.
For the titrations, ^15N-labelled NDM-1 and ^15N-labelled VIM-2 (250 μM), and titrated ligands (0.5 equiv. in 1 μL) were prepared in the same buffer as the protein (20 mM KPO4, 0.1 mM ZnCl2, pH 7.0 with 10% D2O and 2.5% DMSO-d6). ^1H,^15N HSQC spectra were acquired with 128 × 1024 complex points (F1 × F2) and spectral width of 9090 × 2740 Hz on ^15N-labeled NDM-1/VIM-2 and with every titration step up to 1 : 16 ratio between protein : ligand (0, 0.5, 1, 2, 4, 8, and 16 equiv. of ligand). All experiments were recorded on a Bruker 600 MHz spectrometer at 310 K equipped with a 5 mm TCI cryogenic probe. The NMR data were processed on the MestReNova software with the Mnova Binding plugin. The weighted average chemical shift perturbations (CSP) for the backbone amides were calculated from the observed chemical shift differences in the proton and nitrogen dimensions using the equation (chemical shift scaling factors: FH = 1, FN = 0.156) CSP = Δδ1H,15N = [drawing 13] .
7. Chemical shift perturbation histograms
Chemical shift perturbation was calculated according equation (1) 2
CSP = Δδ(1H,15N) = √(Δδ1H2 + (1⁄R × Δδ15N2) Rscale = 6.5 (1)
Where Δδ1H is the chemical shift change for proton dimension, Δδ15N is the chemical shift change for nitrogen dimension, Rscale is a
The chemical shift perturbations (CSP) were classified as significant (SSP) when the observed Δδ(1H,15N) was greater than the population
mean plus the standard deviation (µ+1σ) – solid line; (µ+2σ) – dashed line, and (µ+3σ) – dashed line.
Further on, Kd was calculated according: 3
([P]+[L]+Kd)− √([P]+[L]+Kd)2−4[P][L]
ΔδmaxΔδobs = Δδmax 2[P] (2)
Where Kd is the dissociation constant, [P] and [L] are protein and ligand concentrations, respectively. Δδmax were estimated in
MestReNova by extrapolation of the obser ved chemical shift differences Δδobs.

T2 sequence (C7C422 29-270 limits assumed): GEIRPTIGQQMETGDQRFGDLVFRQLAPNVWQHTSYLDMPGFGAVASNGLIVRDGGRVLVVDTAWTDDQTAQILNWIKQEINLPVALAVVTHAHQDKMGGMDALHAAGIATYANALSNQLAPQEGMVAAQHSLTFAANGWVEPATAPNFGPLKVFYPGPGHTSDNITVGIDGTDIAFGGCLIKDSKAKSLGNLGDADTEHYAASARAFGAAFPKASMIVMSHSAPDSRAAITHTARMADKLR

Row | SMILES | IC50 (VIM-2) | Enzyme IC50 NDM-1 (NDM-1) | Kd (15N-labelled VIM-2) | Enzyme IC50 VIM-2 (VIM-2) | IC50 (NDM-1)
1 | O=C(NC(C1CCCCN1)P(=O)(O)O)c1csc2c1CCCC2 (single isomer, unassigned) [Compound 5e-1, (Piperidin-2-yl(4,5,6,7-tetrahydrobenzo[b]thiophene-3-carboxamido)methyl)phosphonic acid hydrochloride] | 69.7 ± 26.2 µM | – | – | – | –
2 | Cl.O=C(NC(C1CCCCN1)P(=O)(O)O)c1csc2c1CCCC2 (single isomer, unassigned) [Compound 5e-2, (Piperidin-2-yl(4,5,6,7-tetrahydrobenzo[b]thiophene-3-carboxamido)methyl)phosphonic acid hydrochloride] | 46.1 ± 15.6 µM | N.I. | – | – | –
3 | Cl.O=C(NC(C1CCCCN1)P(=O)(O)O)c1scc2c1CCCC2 (single isomer, unassigned) [Compound 5f-1, (Piperidin-2-yl(4,5,6,7-tetrahydrobenzo[c]thiophene-1-carboxamido)methyl)phosphonic acid hydrochloride] | 37 ± 3 µM | N.I. | – | – | –
4 | Cl.O=C(NC(C1CCCCN1)P(=O)(O)O)c1scc2c1CCCC2 (single isomer, unassigned) [Compound 5f-2, (Piperidin-2-yl(4,5,6,7-tetrahydrobenzo[c]thiophene-1-carboxamido)methyl)phosphonic acid hydrochloride] | 18.8 ± 0.5 µM | N.I. | – | – | –
5 | Cl.O=C(Cc1cc2ccccc2s1)NC(C1CCCCN1)P(=O)(O)O (single isomer, unassigned) [Compound 5k-1, ((2-(Benzo[b]thiophen-2-yl)acetamido)(piperidin-2-yl)methyl)phosphonic acid hydrochloride] | 56.6 ± 1 µM | N.I. | – | – | –
6 | O=C(Cc1cc2ccccc2s1)NC(C1CCCCN1)P(=O)(O)O (single isomer, unassigned) [Compound 5k-2, ((2-(Benzo[b]thiophen-2-yl)acetamido)(piperidin-2-yl)methyl)phosphonic acid hydrochloride] | 28.7 ± 10.1 µM | – | – | – | –
7 | Cc1[nH]c(=S)sc1CC(=O)NC(C1CCCCN1)P(=O)(O)O (centres unmarked) [Compound 5a-1, ((2-(4-Methyl-2-thioxo-2,3-dihydrothiazol-5-yl)acet-amido)(piperidin-2-yl)methyl)phosphonic acid hydro-chloride] | 353 ± 62 µM | N.I. ^b | 900 ± 100 µM | – | –
8 | Cc1[nH]c(=S)sc1CC(=O)NC(C1CCCCN1)P(=O)(O)O (centres unmarked) [Compound 5a-2, ((2-(4-Methyl-2-thioxo-2,3-dihydrothiazol-5-yl)acet-amido)(piperidin-2-yl)methyl)phosphonic acid hydro-chloride] | – | N.I. | – | N.I. | –
9 | O=C(NC(C1CCCCN1)P(=O)(O)O)c1cccs1 (centres unmarked) [Compound 5b-2, (Piperidin-2-yl(thiophene-2-carboxamido)methyl)phos-phonic acid hydrochloride] | 7.2 ± 0.4 µM | N.I. | 1400 ± 100 µM | – | –
10 | O=C(NC(C1CCCCN1)P(=O)(O)O)c1ccsc1 (centres unmarked) [Compound 5c-2, (Piperidin-2-yl(thiophene-3-carboxamido)methyl)phos-phonic acid hydrochloride] | 14.6 ± 2.3 µM | N.I. | – | – | –
11 | Cl.O=C(NC(C1CCCCN1)P(=O)(O)O)c1cc2c(s1)CCCC2 (centres unmarked) [Compound 5d-1, (Piperidin-2-yl(4,5,6,7-tetrahydrobenzo[b]thiophene-2-carboxamido)methyl)phosphonic acid hydrochloride] | 244 ± 35 µM | N.I. | – | – | –
12 | Cl.O=C(NC(C1CCCCN1)P(=O)(O)O)c1cc2c(s1)CCCC2 (centres unmarked) [Compound 5d-2, (Piperidin-2-yl(4,5,6,7-tetrahydrobenzo[b]thiophene-2-carboxamido)methyl)phosphonic acid hydrochloride] | 4.5 ± 0.8 µM | N.I. | – | – | –
13 | O=C(NC(C1CCCCN1)P(=O)(O)O)c1cc2ccccc2s1 (centres unmarked) [Compound 5g-1, ((Benzo[b]thiophene-2-carboxamido)(piperidin-2-yl)methyl)phosphonic acid hydrochloride] | 45 ± 5 µM | – | – | – | 46.7 ± 9.7 µM
14 | O=C(NC(C1CCCCN1)P(=O)(O)O)c1cc2ccccc2s1 (centres unmarked) [Compound 5g-2, ((Benzo[b]thiophene-2-carboxamido)(piperidin-2-yl)methyl)phosphonic acid hydrochloride] | 4.1 ± 2.1 µM | – | – | – | 46.8 ± 5.5 µM
15 | O=C(NC(C1CCCCN1)P(=O)(O)O)c1csc2ccccc12 (centres unmarked) [Compound 5h-1, ((Benzo[b]thiophene-3-carboxamido)(piperidin-2-yl)met-hyl)phosphonic acid hydrochloride] | 40.6 ± 3.9 µM | N.I. | – | – | –
16 | O=C(NC(C1CCCCN1)P(=O)(O)O)c1csc2ccccc12 (centres unmarked) [Compound 5h-2, ((Benzo[b]thiophene-3-carboxamido)(piperidin-2-yl)met-hyl)phosphonic acid hydrochloride] | 11.6 ± 4.7 µM | N.I. | – | – | –
17 | O=C(Cc1ccsc1)NC(C1CCCCN1)P(=O)(O)O (centres unmarked) [Compound 5j-2, (Piperidin-2-yl(2-(thiophen-3-yl)acetamido)methyl)phos-phonic acid hydrochloride] | – | N.I. | – | N.I. | –
18 | Cl.O=C(Cc1csc2ccccc12)NC(C1CCCCN1)P(=O)(O)O (centres unmarked) [Compound 5l-1, ((2-(Benzo[b]thiophen-3-yl)acetamido)(piperidin-2-yl)methyl)phosphonic acid hydrochloride] | – | – | – | N.I. | 7.9 ± 1.6 µM
19 | O=C(Cc1csc2ccccc12)NC(C1CCCCN1)P(=O)(O)O (centres unmarked) [Compound 5l-2, ((2-(Benzo[b]thiophen-3-yl)acetamido)(piperidin-2-yl)methyl)phosphonic acid hydrochloride] | 94.4 ± 5.8 µM | – | – | – | 27.8 ± 21 µM
